# Legend:
# [1] = biological target: T1, Corticotropin-releasing factor receptor 1 (Homo sapiens, UniProt P34998)
# T1 sequence (P34998 whole entry): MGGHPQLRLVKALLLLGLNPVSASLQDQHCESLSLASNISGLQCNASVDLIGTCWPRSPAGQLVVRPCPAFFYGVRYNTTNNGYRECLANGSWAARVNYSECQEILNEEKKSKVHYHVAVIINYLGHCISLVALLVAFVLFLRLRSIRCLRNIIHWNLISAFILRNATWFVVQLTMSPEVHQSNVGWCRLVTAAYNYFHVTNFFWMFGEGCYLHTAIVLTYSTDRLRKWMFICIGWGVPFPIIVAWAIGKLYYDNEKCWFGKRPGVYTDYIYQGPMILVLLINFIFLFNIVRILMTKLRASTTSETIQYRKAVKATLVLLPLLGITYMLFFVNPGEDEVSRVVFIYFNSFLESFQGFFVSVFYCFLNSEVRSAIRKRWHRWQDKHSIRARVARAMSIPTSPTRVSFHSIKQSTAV
# Glucocorticoid receptor = biological target: T2, Glucocorticoid receptor (Homo sapiens, UniProt P04150)
# T2 sequence (P04150 whole entry): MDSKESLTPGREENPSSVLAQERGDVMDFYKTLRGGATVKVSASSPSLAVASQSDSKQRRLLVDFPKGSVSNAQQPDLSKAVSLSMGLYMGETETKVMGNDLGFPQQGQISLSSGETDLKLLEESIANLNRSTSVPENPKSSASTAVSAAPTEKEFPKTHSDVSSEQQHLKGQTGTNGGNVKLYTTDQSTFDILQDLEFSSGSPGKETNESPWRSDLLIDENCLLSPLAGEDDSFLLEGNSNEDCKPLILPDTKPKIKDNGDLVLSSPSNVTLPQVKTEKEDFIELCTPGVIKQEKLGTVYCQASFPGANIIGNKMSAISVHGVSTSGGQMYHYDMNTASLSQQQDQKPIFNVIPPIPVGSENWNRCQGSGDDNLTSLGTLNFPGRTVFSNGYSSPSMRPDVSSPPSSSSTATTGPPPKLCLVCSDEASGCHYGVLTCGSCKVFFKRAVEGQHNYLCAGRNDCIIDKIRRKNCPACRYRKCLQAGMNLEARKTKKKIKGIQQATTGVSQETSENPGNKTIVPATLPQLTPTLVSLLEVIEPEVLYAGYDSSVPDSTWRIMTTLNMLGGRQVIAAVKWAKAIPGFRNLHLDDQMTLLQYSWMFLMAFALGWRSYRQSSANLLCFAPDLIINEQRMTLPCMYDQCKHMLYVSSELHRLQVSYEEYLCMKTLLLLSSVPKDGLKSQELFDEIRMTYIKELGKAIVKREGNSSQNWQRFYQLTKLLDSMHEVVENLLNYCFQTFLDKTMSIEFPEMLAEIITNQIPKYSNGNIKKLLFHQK
# [2] = biological target: Voltage-dependent N-type calcium channel subunit alpha-1B (Rattus norvegicus, UniProt Q02294); format: functional
# [3] = biological target: Neurotensin receptor type 1 (Homo sapiens, UniProt P30989)
# Sequence of Neurotensin receptor type 1 (P30989 whole entry): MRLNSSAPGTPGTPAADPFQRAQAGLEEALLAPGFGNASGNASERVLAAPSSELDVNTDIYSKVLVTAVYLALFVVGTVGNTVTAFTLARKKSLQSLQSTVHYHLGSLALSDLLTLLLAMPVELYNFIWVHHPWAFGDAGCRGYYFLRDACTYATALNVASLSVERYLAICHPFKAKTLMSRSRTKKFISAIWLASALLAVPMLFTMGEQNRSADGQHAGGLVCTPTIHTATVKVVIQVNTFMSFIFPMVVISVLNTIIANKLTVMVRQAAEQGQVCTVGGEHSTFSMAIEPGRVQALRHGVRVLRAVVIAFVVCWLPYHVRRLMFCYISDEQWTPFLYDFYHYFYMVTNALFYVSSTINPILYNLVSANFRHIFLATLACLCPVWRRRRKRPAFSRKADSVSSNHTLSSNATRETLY
# [4] = biological target: Beta-3 adrenergic receptor (Homo sapiens, UniProt P13945)
# Sequence of Beta-3 adrenergic receptor (P13945 whole entry): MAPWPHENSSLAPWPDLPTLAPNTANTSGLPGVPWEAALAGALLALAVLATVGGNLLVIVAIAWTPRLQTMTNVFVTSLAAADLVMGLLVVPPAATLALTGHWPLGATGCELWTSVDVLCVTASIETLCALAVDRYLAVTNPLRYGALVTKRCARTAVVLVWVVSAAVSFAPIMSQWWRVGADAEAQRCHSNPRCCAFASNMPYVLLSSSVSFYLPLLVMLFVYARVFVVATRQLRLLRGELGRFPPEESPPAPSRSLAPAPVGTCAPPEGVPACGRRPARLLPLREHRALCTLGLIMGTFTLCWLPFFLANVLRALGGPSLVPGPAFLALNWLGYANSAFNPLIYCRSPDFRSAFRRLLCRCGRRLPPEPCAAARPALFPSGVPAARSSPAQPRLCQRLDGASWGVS
# [5] = biological target: T3, Peroxisome proliferator-activated receptor gamma (Homo sapiens, UniProt P37231); format: functional
# T3 sequence (P37231 whole entry): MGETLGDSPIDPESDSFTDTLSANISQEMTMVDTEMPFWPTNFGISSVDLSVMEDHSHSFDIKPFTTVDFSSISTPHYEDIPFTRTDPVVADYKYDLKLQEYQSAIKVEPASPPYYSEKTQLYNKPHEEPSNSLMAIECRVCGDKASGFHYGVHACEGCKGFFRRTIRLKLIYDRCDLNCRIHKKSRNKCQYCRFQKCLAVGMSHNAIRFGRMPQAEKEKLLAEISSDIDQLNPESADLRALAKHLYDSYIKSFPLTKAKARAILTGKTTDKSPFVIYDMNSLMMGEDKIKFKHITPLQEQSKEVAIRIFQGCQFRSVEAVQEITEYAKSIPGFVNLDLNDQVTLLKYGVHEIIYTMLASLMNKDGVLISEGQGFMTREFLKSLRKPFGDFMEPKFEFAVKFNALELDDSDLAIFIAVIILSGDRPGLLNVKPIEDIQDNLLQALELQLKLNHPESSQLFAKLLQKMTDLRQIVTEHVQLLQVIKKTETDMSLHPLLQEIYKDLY
# [6] = biological target: Voltage-dependent L-type calcium channel subunit alpha-1C (Rattus norvegicus, UniProt P22002); format: functional
# [7] = biological target: T4, Gamma-aminobutyric acid receptor subunit alpha-1/alpha-2/beta-2/gamma-2 (Homo sapiens, UniProt P14867+P18507+P47869+P47870); format: functional, cell-based
# T4 sequence (P14867 whole entry): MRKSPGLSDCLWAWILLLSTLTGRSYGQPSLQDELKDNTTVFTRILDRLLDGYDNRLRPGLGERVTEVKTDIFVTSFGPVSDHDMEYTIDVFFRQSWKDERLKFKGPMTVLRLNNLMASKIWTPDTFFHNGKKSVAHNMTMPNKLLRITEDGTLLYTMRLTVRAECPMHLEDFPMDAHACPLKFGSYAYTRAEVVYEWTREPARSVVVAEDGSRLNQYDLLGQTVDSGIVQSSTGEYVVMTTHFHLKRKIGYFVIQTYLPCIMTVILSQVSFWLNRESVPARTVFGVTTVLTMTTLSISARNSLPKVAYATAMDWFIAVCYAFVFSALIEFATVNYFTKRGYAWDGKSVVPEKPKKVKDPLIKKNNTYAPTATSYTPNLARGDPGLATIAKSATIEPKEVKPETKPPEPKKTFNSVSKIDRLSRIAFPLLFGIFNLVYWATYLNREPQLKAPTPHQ
# T4 sequence (P47870 whole entry): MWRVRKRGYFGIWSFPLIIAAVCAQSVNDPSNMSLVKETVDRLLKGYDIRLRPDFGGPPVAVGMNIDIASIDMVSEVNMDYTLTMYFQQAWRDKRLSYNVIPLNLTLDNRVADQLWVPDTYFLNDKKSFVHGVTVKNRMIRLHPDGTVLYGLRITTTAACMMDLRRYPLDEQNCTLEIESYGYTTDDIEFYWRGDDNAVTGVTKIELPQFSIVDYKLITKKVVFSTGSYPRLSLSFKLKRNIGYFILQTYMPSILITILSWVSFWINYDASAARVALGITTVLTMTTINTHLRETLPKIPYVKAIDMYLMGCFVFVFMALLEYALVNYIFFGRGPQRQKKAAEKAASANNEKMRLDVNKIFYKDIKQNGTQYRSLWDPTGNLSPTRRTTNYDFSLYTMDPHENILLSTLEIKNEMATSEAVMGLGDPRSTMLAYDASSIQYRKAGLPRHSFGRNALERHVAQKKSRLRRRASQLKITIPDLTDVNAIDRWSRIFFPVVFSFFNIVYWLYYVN
# T4 sequence (P18507 whole entry): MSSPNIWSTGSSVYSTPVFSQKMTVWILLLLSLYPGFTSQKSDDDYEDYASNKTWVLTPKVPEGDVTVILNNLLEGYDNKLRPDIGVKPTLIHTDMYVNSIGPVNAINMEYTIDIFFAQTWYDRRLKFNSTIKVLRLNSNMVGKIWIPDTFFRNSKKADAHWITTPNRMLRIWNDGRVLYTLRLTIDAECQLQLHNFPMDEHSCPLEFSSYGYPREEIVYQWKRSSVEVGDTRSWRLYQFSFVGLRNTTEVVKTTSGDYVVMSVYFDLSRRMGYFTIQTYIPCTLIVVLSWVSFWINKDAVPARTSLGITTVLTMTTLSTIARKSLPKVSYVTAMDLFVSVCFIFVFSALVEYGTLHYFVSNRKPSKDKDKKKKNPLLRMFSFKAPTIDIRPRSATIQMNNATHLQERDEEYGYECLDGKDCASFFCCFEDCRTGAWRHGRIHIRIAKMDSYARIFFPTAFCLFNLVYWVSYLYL
# T4 sequence (P47869 whole entry): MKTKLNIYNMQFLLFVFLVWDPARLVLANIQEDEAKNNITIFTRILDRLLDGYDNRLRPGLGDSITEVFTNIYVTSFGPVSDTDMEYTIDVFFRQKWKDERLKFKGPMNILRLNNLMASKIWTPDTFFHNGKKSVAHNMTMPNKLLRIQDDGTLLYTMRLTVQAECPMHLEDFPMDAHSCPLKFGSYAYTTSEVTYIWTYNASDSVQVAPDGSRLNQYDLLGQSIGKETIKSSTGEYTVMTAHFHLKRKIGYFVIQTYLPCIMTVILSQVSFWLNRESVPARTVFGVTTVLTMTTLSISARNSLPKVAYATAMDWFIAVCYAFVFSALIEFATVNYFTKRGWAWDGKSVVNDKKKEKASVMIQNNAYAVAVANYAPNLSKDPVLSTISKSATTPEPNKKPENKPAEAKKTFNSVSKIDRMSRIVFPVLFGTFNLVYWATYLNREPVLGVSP
# [8] = biological target: T4, Gamma-aminobutyric acid receptor subunit alpha-1/alpha-2/beta-2/gamma-2; format: functional, cell-based; remark: listed apart in the source
# Mu-type opioid receptor = Mu-type opioid receptor (Homo sapiens, UniProt P35372); test: biochemical; format: functional
# Sequence of Mu-type opioid receptor (P35372 whole entry): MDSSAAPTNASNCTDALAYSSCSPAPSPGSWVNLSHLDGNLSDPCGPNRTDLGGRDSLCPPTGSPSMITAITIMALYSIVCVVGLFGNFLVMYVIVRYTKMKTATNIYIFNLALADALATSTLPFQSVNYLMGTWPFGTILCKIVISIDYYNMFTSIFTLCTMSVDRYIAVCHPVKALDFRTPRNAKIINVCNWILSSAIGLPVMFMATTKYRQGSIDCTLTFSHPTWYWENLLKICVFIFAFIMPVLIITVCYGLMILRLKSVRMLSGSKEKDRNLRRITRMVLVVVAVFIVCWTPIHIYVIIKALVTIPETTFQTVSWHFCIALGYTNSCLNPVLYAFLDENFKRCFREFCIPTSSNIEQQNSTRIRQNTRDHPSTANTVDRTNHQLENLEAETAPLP
# Histamine H1 receptor = Histamine H1 receptor (Homo sapiens, UniProt P35367)
# Sequence of Histamine H1 receptor (P35367 whole entry): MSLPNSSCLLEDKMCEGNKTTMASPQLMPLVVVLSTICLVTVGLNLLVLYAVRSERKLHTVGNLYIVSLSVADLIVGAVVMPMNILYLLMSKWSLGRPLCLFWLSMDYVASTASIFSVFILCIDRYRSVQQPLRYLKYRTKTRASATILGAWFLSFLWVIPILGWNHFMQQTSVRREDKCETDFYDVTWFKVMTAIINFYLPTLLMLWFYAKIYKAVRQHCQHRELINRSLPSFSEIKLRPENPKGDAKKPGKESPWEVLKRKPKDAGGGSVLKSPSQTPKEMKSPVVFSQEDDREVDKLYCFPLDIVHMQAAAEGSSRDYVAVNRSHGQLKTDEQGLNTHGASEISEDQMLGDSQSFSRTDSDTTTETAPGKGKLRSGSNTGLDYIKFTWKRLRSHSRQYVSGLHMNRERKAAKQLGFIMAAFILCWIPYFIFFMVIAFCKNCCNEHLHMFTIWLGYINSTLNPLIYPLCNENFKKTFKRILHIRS
# [9] = biological target: T5, Muscarinic acetylcholine receptor M1 (Homo sapiens, UniProt P11229); format: functional
# T5 sequence (P11229 whole entry): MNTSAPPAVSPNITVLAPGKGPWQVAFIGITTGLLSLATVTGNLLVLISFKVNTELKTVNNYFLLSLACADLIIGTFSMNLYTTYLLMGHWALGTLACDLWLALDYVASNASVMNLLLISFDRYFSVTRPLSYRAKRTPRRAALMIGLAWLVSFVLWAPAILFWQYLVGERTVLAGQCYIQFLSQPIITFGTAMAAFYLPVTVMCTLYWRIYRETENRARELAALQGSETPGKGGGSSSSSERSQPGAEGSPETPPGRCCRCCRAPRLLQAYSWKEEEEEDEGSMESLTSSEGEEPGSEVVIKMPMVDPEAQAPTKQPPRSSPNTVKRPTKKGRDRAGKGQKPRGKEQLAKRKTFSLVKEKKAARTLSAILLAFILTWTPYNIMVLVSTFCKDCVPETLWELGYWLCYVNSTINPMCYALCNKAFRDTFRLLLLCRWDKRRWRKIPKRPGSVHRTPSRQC
# [10] = biological target: Muscarinic acetylcholine receptor M3 (Homo sapiens, UniProt P20309)
# Sequence of Muscarinic acetylcholine receptor M3 (P20309 whole entry): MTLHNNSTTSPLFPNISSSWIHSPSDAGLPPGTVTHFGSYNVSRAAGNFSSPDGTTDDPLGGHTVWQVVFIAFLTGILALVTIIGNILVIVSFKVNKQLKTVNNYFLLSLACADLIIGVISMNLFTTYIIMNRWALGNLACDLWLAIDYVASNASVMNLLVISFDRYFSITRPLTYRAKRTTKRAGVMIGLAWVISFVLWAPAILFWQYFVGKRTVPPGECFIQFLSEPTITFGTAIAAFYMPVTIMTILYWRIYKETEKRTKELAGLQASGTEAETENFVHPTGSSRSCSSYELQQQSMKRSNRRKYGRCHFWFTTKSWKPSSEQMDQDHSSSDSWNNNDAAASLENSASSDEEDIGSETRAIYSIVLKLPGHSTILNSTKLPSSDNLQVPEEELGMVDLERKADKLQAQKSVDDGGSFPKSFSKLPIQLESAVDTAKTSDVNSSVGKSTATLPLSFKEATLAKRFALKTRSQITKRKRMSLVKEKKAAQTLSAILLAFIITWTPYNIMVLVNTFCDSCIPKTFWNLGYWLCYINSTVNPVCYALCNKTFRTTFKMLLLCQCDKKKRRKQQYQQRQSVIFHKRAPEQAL
# Note: assay procedure not described here.
SMILES,AC50 [1],AC50 (Glucocorticoid receptor),AC50 [2],AC50 [3],AC50 [4],AC50 [5],AC50 [6],AC50 [7],AC50 [8],AC50 (Mu-type opioid receptor),AC50 (Histamine H1 receptor),AC50 [9],AC50 [10]
CCOc1nc2cccc(C(=O)O)c2n1Cc1ccc(-c2ccccc2-c2nnn[nH]2)cc1,> 30 µM,> 30 µM,> 10 µM,> 30 µM,> 30 µM,> 30 µM,> 10 µM,> 30 µM,> 30 µM,–,–,–,–
CCCc1nc2c(C)cc(-c3nc4ccccc4n3C)cc2n1Cc1ccc(-c2ccccc2C(=O)O)cc1,> 30 µM,> 30 µM,> 10 µM,> 30 µM,> 30 µM,> 30 µM,> 30 µM,> 30 µM,> 30 µM,3.7 µM,> 30 µM,> 30 µM,> 30 µM
CCOc1cc([C@@H](CS(C)(=O)=O)N2C(=O)c3cccc(NC(C)=O)c3C2=O)ccc1OC,–,–,–,–,–,> 30 µM,–,> 30 µM,> 30 µM,–,> 30 µM,> 30 µM,> 30 µM
CC1(C)S[C@@H]2[C@H](NC(=O)C(C(=O)O)c3ccccc3)C(=O)N2[C@H]1C(=O)O (stereo partly drawn) [CARBENICILLIN],–,> 30 µM,–,–,–,> 30 µM,–,> 30 µM,> 30 µM,> 30 µM,> 30 µM,> 30 µM,> 30 µM
Cc1nnc(SCC2=C(C(=O)O)N3C(=O)[C@@H](NC(=O)Cn4cnnn4)[C@H]3SC2)s1 [CEFAZOLIN],–,–,–,–,–,> 300 µM,–,> 2400 µM,> 2400 µM,> 30 µM,> 300 µM,> 300 µM,> 300 µM
CC(C)(O/N=C(\C(=O)N[C@@H]1C(=O)N2C(C(=O)[O-])=C(C[n+]3ccccc3)CS[C@H]12)c1csc(N)n1)C(=O)O [CEFTAZIDIME],–,> 30 µM,–,–,–,> 300 µM,–,> 2400 µM,> 2400 µM,> 30 µM,> 300 µM,> 300 µM,> 300 µM
Clc1ccc(Cn2c(CN3CCCC3)nc3ccccc32)cc1 [CLEMIZOLE],–,–,–,–,–,> 30 µM,–,> 30 µM,> 30 µM,–,0.0034 µM,> 30 µM,> 30 µM
Cc1onc(-c2c(F)cccc2Cl)c1C(=O)N[C@@H]1C(=O)N2[C@@H]1SC(C)(C)[C@@H]2C(=O)O [FLOXACILLIN],–,–,–,–,–,> 30 µM,–,> 30 µM,> 30 µM,–,> 30 µM,> 30 µM,> 30 µM
COc1cc(C(C)=O)ccc1OCCCN1CCC(c2noc3cc(F)ccc23)CC1 [ILOPERIDONE],–,–,–,–,–,> 30 µM,–,> 30 µM,> 30 µM,–,–,6.38 µM,> 30 µM
